According to the supplement of paper PMC10307832:

How the values were obtained:
Assay in all cases: relative viability (nuclei count vs DMSO), 5 days (fraction); higher = more cells survive
[1] = compound: CN(c1ncccc1CNc1nc(Nc2ccc3c(c2)CC(=O)N3)ncc1C(F)(F)F)S(C)(=O)=O + C[C@]1(O)C[C@@H](c2nc(-c3ccc4ccc(-c5ccccc5)nc4c3)c3c(N)nccn32)C1 [Linsitinib] (partner 1 µM)
Procedure, shortened: (§1)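 Lung cancer cell lines in 1536-well plates got either a single drug or a fixed anchor-drug dose together with five library-drug doses (not always all listed) in √10 steps, by pin tool, on the day after seeding. Nuclei were counted after 5 days, and relative viability is the treated-to-vehicle ratio of nuclei counts. Values are medians of duplicate plates.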

[2] = compound: CN(c1ncccc1CNc1nc(Nc2ccc3c(c2)CC(=O)N3)ncc1C(F)(F)F)S(C)(=O)=O + Nc1nc2[nH]cc(CCc3ccc(C(=O)N[C@@H](CCC(=O)O)C(=O)O)cc3)c2c(=O)[nH]1 [Pemetrexed] (partner 0.2 µM)
Procedure, shortened: as §1

[3] = compound: CN(c1ncccc1CNc1nc(Nc2ccc3c(c2)CC(=O)N3)ncc1C(F)(F)F)S(C)(=O)=O + O=C(CCCCCCC(=O)Nc1ccccc1)NO [Vorinostat] (partner 1 µM)
Procedure, shortened: as §1

[4] = compound: CN(c1ncccc1CNc1nc(Nc2ccc3c(c2)CC(=O)N3)ncc1C(F)(F)F)S(C)(=O)=O + O=C(c1cc(Cc2n[nH]c(=O)c3ccccc23)ccc1F)N1CCN(C(=O)C2CC2)CC1 [Olaparib] (partner 8 µM)
Procedure, shortened: as §1

Cell Line	relative viability ([1]; first compound 0.01 µM)	relative viability ([1]; first compound 0.03162 µM)	relative viability ([1]; first compound 0.1 µM)	relative viability ([1]; first compound 0.3162 µM)	relative viability ([1]; first compound 1 µM)	relative viability ([2]; first compound 0.01 µM)	relative viability ([2]; first compound 0.03162 µM)	relative viability ([2]; first compound 0.1 µM)	relative viability ([2]; first compound 0.3162 µM)	relative viability ([2]; first compound 1 µM)	relative viability ([3]; first compound 0.01 µM)	relative viability ([3]; first compound 0.03162 µM)	relative viability ([3]; first compound 0.1 µM)	relative viability ([3]; first compound 0.3162 µM)	relative viability ([3]; first compound 1 µM)	relative viability ([4]; first compound 0.01 µM)	relative viability ([4]; first compound 0.03162 µM)	relative viability ([4]; first compound 0.1 µM)	relative viability ([4]; first compound 0.3162 µM)	relative viability ([4]; first compound 1 µM)
LC-2-ad	0.85	0.784	0.862	0.786	0.847	0.283	0.3	0.274	0.285	0.274	0.739	0.756	0.674	0.635	0.584	0.732	0.703	0.703	0.664	0.596
LCLC-97TM1		0.226	0.167	0.216	0.152	0.149	0.164	0.125	0.133	0.13	0.644	0.82	0.609	0.751	0.586	0.45	0.414	0.401	0.291	0.261
LCLC-103H	1.1	1.1	0.983	0.977	0.88	0.476	0.474	0.488	0.541	0.463	0.852	0.725	0.732	0.771	0.769	0.724	0.742	0.78	0.693	0.669
LK-2	0.631	0.534	0.546	0.526	0.766	0.309	0.28	0.252	0.251	0.29	0.215	0.314	0.269	0.218	0.309	0.807	0.846	0.615	0.639	0.542
LOU-NH91	0.988	1.02	1.02	1.08	1.11	0.423	0.368	0.375	0.382	0.338	0.957	0.99	0.852	0.907	0.976	0.888	0.92	0.883	0.972	0.858
LU99A	0.582	0.552	0.609	0.537	0.656	0.25	0.156	0.184	0.203	0.178	0.531	0.526	0.571	0.635	0.531	0.26	0.305	0.302	0.261	0.236
LXF-289	1.03	1.03	0.95	0.947	0.936	1.03	0.829	0.864	0.804	0.871	0.887	0.787	0.782	0.697	0.792	1.1	1.21	1.04	1.11	1.02
NCI-H23	0.598	0.695	0.549	0.678	0.723	0.691	0.618	0.779	0.62	0.605	0.659	0.594	0.633	0.714	0.662	0.337	0.345	0.389	0.319	0.306
NCI-H322M	1.02	1.08		1.1	1.16	0.615	0.606	0.651	0.635	0.714	0.883	0.875	0.916	0.97	0.98	0.741	0.774	0.739	0.878	0.832
NCI-H358	0.739	0.727	0.626	0.705	0.666	0.148	0.164	0.169	0.177	0.156	0.65	0.704	0.692	0.573	0.421	0.61	0.57	0.573	0.532	0.416
NCI-H441	0.457	0.707	0.513	0.583	0.536	0.222	0.262	0.244	0.292	0.262	0.933	0.978	0.824	0.792	0.644	0.633	0.592	0.466	0.486	0.408
NCI-H460	0.79	1.17	0.785	0.628	0.788	0.0683	0.0581	0.0611	0.0605	0.0728	0.696	0.757	0.615	0.76	0.736	0.443	0.573	0.464	0.464	0.396
NCI-H520	1.03	0.941	1	1.03	0.842	0.609	0.924	0.632	0.768	0.705	0.678	0.925	0.693	0.746	0.754	0.325	0.318	0.35	0.394	0.423
NCI-H596	1	1.12	1.02	1.05	0.896	0.425	0.466	0.503	0.469	0.605	0.586	0.616	0.566	0.557	0.69	0.634	0.655	0.664	0.674	0.723
NCI-H647	1.1	1.4	1.13	0.95	1.1	0.192	0.163	0.167	0.178	0.17	0.473	0.742	0.476	0.577	0.631	0.528	0.494	0.708	0.597	0.488
NCI-H650	0.948	0.696	0.644	0.764	0.76	0.884	0.935	0.826	1.04	0.621	0.454	0.565	0.557	0.415	0.303	0.372	0.376	0.389	0.367	0.358

Cell Line	relative viability ([1]; first compound 0.01 µM)	relative viability ([1]; first compound 0.03162 µM)	relative viability ([1]; first compound 0.1 µM)	relative viability ([1]; first compound 0.3162 µM)	relative viability ([1]; first compound 1 µM)	relative viability ([2]; first compound 0.01 µM)	relative viability ([2]; first compound 0.03162 µM)	relative viability ([2]; first compound 0.1 µM)	relative viability ([2]; first compound 0.3162 µM)	relative viability ([2]; first compound 1 µM)	relative viability ([3]; first compound 0.01 µM)	relative viability ([3]; first compound 0.03162 µM)	relative viability ([3]; first compound 0.1 µM)	relative viability ([3]; first compound 0.3162 µM)	relative viability ([3]; first compound 1 µM)	relative viability ([4]; first compound 0.01 µM)	relative viability ([4]; first compound 0.03162 µM)	relative viability ([4]; first compound 0.1 µM)	relative viability ([4]; first compound 0.3162 µM)	relative viability ([4]; first compound 1 µM)
NCI-H661	0.657	0.722	0.563	0.679	0.637	0.869	0.941	0.885	0.832	0.833	0.763	0.84	0.744	0.786	0.759	0.727	0.85	0.74	0.771	0.7
NCI-H838	0.981	1.07	1.02	0.83	0.745	0.247	0.258	0.247	0.219	0.238	0.715	0.731	0.94	0.589	0.437	0.736	0.809	0.725	0.55	0.43
NCI-H1355	0.776	0.943	0.846	0.78	0.679	1.02	0.981	0.993	1.02	0.973	0.67	0.708	0.676	0.589	0.623	0.7	0.784	0.713	0.691	0.669
NCI-H1395	0.939	1.12	0.981	1.1	1.2	1	0.882	0.865	0.98	0.909	0.792	0.698	0.725	0.659	0.898	0.454	0.484	0.492	0.457	0.471
NCI-H1437	0.988	1.08	1.08	0.978	0.951	0.332	0.335	0.33	0.347	0.398	0.763	0.846	0.697	0.597	0.414	0.63	0.633	0.59	0.583	0.466
NCI-H1651	0.996	0.999	1.25	0.994	0.993	0.585	0.593	0.558	0.575	0.579	0.565	0.566	0.535	0.568	0.571	0.187	0.172	0.204	0.183	0.197
NCI-H1666	0.814	0.816	0.943	0.72	0.612	0.877	0.82	0.805	0.78	0.787	1.07	0.94	0.926	0.758	0.767	0.671	0.755	0.702	0.744	0.706
NCI-H1734	0.939	1.01	0.796	0.966	0.751	0.421	0.379	0.395	0.421	0.439	0.809	0.818	0.799	0.8	0.781	0.586	0.677	0.614	0.594	0.596
NCI-H1755	0.997	0.951	0.961	0.979	0.908	0.478	0.451	0.426	0.398	0.487	0.79	0.756	0.787	0.75	0.66	0.909	0.904	0.83	0.791	0.839
NCI-H1793	0.883	0.929	0.894	0.857	0.601	1.05	0.912	0.934	0.919	0.931	0.866	0.724	0.785	0.699	0.713	0.88	0.685	0.777	0.948	0.769
NCI-H1915	1.1	1.1	0.983	1.1	1.02	0.528	0.569	0.455	0.517	0.538	0.535	0.534	0.593	0.536	0.519	0.272	0.241	0.262	0.264	0.285
NCI-H1944	1.22	1.18	1.16	1.13	1.28	0.642	0.612	0.646	0.592	0.613	0.587	0.508	0.586	0.585	0.534	0.402	0.421	0.416	0.436	0.42
NCI-H1975	1.01	1.22	1.02	0.925	0.821	0.296	0.283	0.275	0.296	0.288	0.726	0.688	0.666	0.71	0.613	0.799	0.873	0.821	0.832	0.7
NCI-H1993	0.678	0.727	0.78	0.771	0.736	0.584	0.593	0.538	0.641	0.572	0.831	0.773	0.805	0.709	0.577	1.13	0.977	1	1.1	0.92
NCI-H2009	1.14	1.18	1.18	1.24	1.09	1.03	1	0.923	1.01	0.948	0.724	0.838	0.693	0.75	0.685	0.651	0.707	0.684	0.681	0.679
NCI-H2023	0.765	0.714	0.73	0.71	0.631	0.181	0.241	0.221	0.228	0.214	0.636	0.826	0.666	0.709	0.487	0.458	0.476	0.467	0.359	0.407
